How the values were obtained:
UO-31 = assay: NCI 60 cell line panel screen (SRB); assay type: cell-based, human; settings: for Log10GI50: Renal Cancer, UO-31; for Log10LC50 / Log10TGI50: UO-31 (Renal Cancer); for Log10LC50: LC50: PG=−50; for Log10TGI50: TGI: PG=0
U251 = assay: NCI 60 cell line panel screen (SRB); assay type: cell-based, human; settings: for Log10LC50 / Log10TGI50: U251 (CNS Cancer); for Log10LC50: LC50: PG=−50; for Log10TGI50: TGI: PG=0
SF-539 = assay: NCI 60 cell line panel screen (SRB); assay type: cell-based, human; settings: for Log10GI50: CNS Cancer, SF-539; for Log10LC50: LC50: PG=−50
NCI-H23 = assay: NCI 60 cell line panel screen (SRB); assay type: cell-based, human; settings: for Log10LC50 / Log10TGI50: NCI-H23 (Non-Small Cell Lung Cancer); for Log10LC50: LC50: PG=−50; for Log10TGI50: TGI: PG=0; for Log10GI50: Non-Small Cell Lung Cancer, NCI-H23
TK-10 = assay: NCI 60 cell line panel screen (SRB); assay type: cell-based, human; settings: for Log10GI50: Renal Cancer, TK-10; for Log10LC50 / Log10TGI50: TK-10 (Renal Cancer); for Log10LC50: LC50: PG=−50; for Log10TGI50: TGI: PG=0
MOLT-4 = test system: MOLT-4
Experimental: Growth Inhibition. […] The screening assay is performed on 96-well microtitre plates. Relatively high initial inoculation densities are used, in order to permit measurement of “time-zero” values and to enhance the screen's ability to detect and provide some differentiation between growth inhibition and cytotoxic response parameters. […] The inoculated microtitre plates are pre-incubated for 24 hours at 37° C. prior to drug additions. The five drug dilutions tested routinely range from 10^−4 to 10^−8 molar. Higher or lower concentration ranges may be selected on a non-routine basis if appropriate solubility and/or prior biological information or other screening data so dictate. Duplicate wells are prepared for all concentrations, (concentration is often denoted by placing brackets around a number); “time-zero” and “no drug” controls are also provided for each test. The minimum amount of compound required for a one-time evaluation in the routine screen can be calculated from the knowledge that each test requires a total of approximately 40 ml (0.04 liter) of cell culture medium containing the highest desired drug concentration. […] After a 48 hour incubation (37° C.) with the test compound, the cells are fixed in situ to the bottoms of the microtitre wells by addition of 50 μl of either 50% trichloroacetic acid (for adherent cell lines) or 80% trichloroacetic acid (for settled cell suspension lines), followed by incubation for 60 minutes at 4° C. The cellular protein in each well is assayed using a sulforhodamine B (SRB) stain procedure. Briefly, after discarding the supernatants, the microtitre plates are washed 5 times with deionized water and air-dried. […] Unbound SRB is removed by washing 5 times with 1% acetic acid. […] SRB is a bright pink anionic dye which, in dilute acetic acid, binds electrostatically to the basic amino acids of TCA-fixed cells. Cryopreserved master stocks of all the lines are maintained, and cultures used for screening are replaced from the master stock after no more than twenty passages in the screening laboratory. The cell line panel consists of 60 lines, organized into nine, disease-related subpanels including leukemia, non-small-cell lung cancer, colon, CNS, melanoma, ovarian, renal, prostate and breast cancers.
At this value the increase from time tzero, in the number or mass of cells in the test well is only 50% as much as the corresponding increase in the control well during this period of the experiment, see Table III. A drug effect of this intensity is interpreted as primary growth inhibition.
At this value the number or mass of cells in the well at the end of the experiment equals the number or mass of cells in the well at time tzero, see Table IV. A drug effect of this intensity is regarded as cytostasis.
At this value, the number or mass of cells in the test well at the end of the experiment is half that at time tzero, see Table V. This is interpreted as cytotoxicity.
Dose response curves, shown in the above mentioned Figures, are obtained by exposing various cancer cell lines to compounds having a known concentration ([log10M]), as discussed in detail above, and then plotting the percentage growth of each cell line for each concentration. […] Percentage growth is determined by dividing the number or mass of cells in the test well by the number or mass of cells in a control well. […] As discussed previously, the five drug dilutions routinely tested range from 10^−4 to […].

SK-MEL-2 = assay: NCI 60 cell line panel screen (SRB); assay type: cell-based, human; settings: for Log10GI50: Melanoma, SK-MEL-2; for Log10LC50: SK-MEL2 (Melanoma), LC50: PG=−50; for Log10TGI50: SK-MEL-2 (Melanoma), TGI: PG=0
HL-60(TB) = assay: NCI 60 cell line panel screen (SRB); assay type: cell-based, human
OVCAR-5 = assay: NCI 60 cell line panel screen (SRB); assay type: cell-based, human; settings: for Log10LC50: LC50: PG=−50; for Log10GI50: Ovarian Cancer, OVCAR-5
RXF 393 = assay: NCI 60 cell line panel screen (SRB); assay type: cell-based, human; settings: for Log10LC50 / Log10TGI50: RXF 393 (Renal Cancer); for Log10LC50: LC50: PG=−50; for Log10TGI50: TGI: PG=0; for Log10GI50: Renal Cancer, RXF 393
IGROVI = assay: NCI 60 cell line panel screen (SRB); assay type: cell-based, human; settings: for Log10LC50 / Log10TGI50: IGROVI (Ovarian Cancer); for Log10LC50: LC50: PG=−50; for Log10TGI50: TGI: PG=0; for Log10GI50: Ovarian Cancer, IGROVI
PC-3 = assay: NCI 60 cell line panel screen (SRB); assay type: cell-based, human; settings: for Log10LC50 / Log10TGI50: PC-3 (Prostate Cancer); for Log10LC50: LC50: PG=−50; for Log10TGI50: TGI: PG=0; for Log10GI50: Prostate Cancer, PC-3
CCRF-CEM = assay: NCI 60 cell line panel screen (SRB); assay type: cell-based, human; settings: for Log10LC50 / Log10TGI50: CCRF-CEM (Leukemia); for Log10LC50: LC50: PG=−50; for Log10TGI50: TGI: PG=0
NCI-H322M = assay type: cell-based; settings: for Log10TGI50: TGI: PG=0; for Log10GI50: Non-Small Cell Lung Cancer, NCI-H322M
HOP-92 = assay: NCI 60 cell line panel screen (SRB); assay type: cell-based, human; settings: for Log10LC50 / Log10TGI50: HOP-92 (Non-Small Cell Lung Cancer); for Log10LC50: LC50: PG=−50; for Log10TGI50: TGI: PG=0; for Log10GI50: Non-Small Cell Lung Cancer, HOP-92
BT-549 = assay: NCI 60 cell line panel screen (SRB); assay type: cell-based, human
SNB-19 = assay: NCI 60 cell line panel screen (SRB); assay type: cell-based, human
[1] = NCI-H322M (Non-Small Cell Lung Cancer)

## C[C@@H]1CC[C@H]2[C@@H](C)C(CC(O)(COC(=O)CCC(=O)O)CC3OC4O[C@]5(C)CC[C@H]6[C@H](C)CC[C@@H]([C@H]3C)C46OO5)OC3O[C@]4(C)CCC1C32OO4 (some centres unmarked) [Compound 9, tertiary alcohol primary succinate ester]
UO-31
  Log10GI50: −5.05
  Log10LC50: >−4.30 log10M
  Log10TGI50: >−4.30 log10M
U251
  Log10LC50: >−4.30 log10M
  Log10TGI50: −4.75 log10M
SF-539
  Log10GI50: −4.90
SF-539; SF-539 (CNS Cancer)
  Log10LC50: >−4.30 log10M
SF-539; SF-539 (CNS Cancer), TGI: PG=0
  Log10TGI50: −4.50 log10M
NCI-H23
  Log10LC50: >−4.30 log10M
  Log10TGI50: −4.65 log10M
  Log10GI50: <−8.30
TK-10
  Log10GI50: <−8.30
  Log10LC50: >−4.30 log10M
  Log10TGI50: −4.60 log10M
MOLT-4; Leukemia, MOLT-4
  Log10GI50: −5.15
MOLT-4; MOLT-4 (Leukemia), LC50: PG=−50
  Log10LC50: >−4.30 log10M
MOLT-4; MOLT-4 (Leukemia), TGI: PG=0
  Log10TGI50: >−4.30 log10M
MOLT-4; MOLT-4, from dose response curves FIGS. 7a-7i
  drug concentration for primary growth inhibition (percentage growth +50): < 10^−5 molar
MOLT-4; human, 48 h
  concentration for cytotoxicity (percentage growth −50): greater than 10^−4 M
SK-MEL-2
  Log10GI50: −4.88
  Log10LC50: >−4.30 log10M
  Log10TGI50: >−4.30 log10M
HL-60(TB); HL-60(TB) (Leukemia), LC50: PG=−50
  Log10LC50: >−4.30 log10M
HL-60(TB); Leukemia, HL-60(TB)
  Log10GI50: <−8.30
OVCAR-5; OVCAR-5 (Ovarian Cancer)
  Log10LC50: >−4.30 log10M
OVCAR-5
  Log10GI50: <−8.30
RXF 393
  Log10LC50: >−4.30 log10M
  Log10TGI50: −4.45 log10M
  Log10GI50: −7.67
IGROVI
  Log10LC50: >−4.30 log10M
  Log10TGI50: >−4.30 log10M
  Log10GI50: −4.97
PC-3
  Log10LC50: >−4.30 log10M
  Log10TGI50: >−4.30 log10M
  Log10GI50: <−8.30
CCRF-CEM
  Log10LC50: >−4.30 log10M
  Log10TGI50: >−4.30 log10M
CCRF-CEM; Leukemia, CCRF-CEM
  Log10GI50: <−8.30
NCI-H322M; [1]
  Log10TGI50: >−4.30 log10M
NCI-H322M
  Log10GI50: −5.07
HOP-92
  Log10LC50: >−4.30 log10M
  Log10TGI50: >−4.30 log10M
  Log10GI50: <−8.30

## CC1CCC2C(C)C(CC(COC(=O)c3cc[n+]([O-])cc3)CC3OC4OC5(C)CCC6C(C)CCC(C3C)C46OO5)OC3OC4(C)CCC1C32OO4 (centres unmarked) [Compound 13, bis-trioxane primary alcohol isonicotinate N-oxide]
UO-31
  Log10GI50: <−8.30
  Log10LC50: >−4.30 log10M
  Log10TGI50: −5.10 log10M
U251; CNS Cancer, U251
  Log10GI50: <−8.30
U251
  Log10LC50: −4.69 log10M
  Log10TGI50: −5.08 log10M
SF-539
  Log10GI50: <−8.30
SF-539; SF-539 (CNS Cancer)
  Log10LC50: −4.56 log10M
NCI-H23
  Log10LC50: −4.62 log10M
  Log10TGI50: −5.17 log10M
  Log10GI50: <−8.30
TK-10
  Log10GI50: <−8.30
  Log10LC50: −4.53 log10M
  Log10TGI50: −5.34 log10M
SK-MEL-2
  Log10GI50: −5.12
  Log10LC50: >−4.30 log10M
  Log10TGI50: >−4.30 log10M
BT-549; BT-549 (Breast Cancer), LC50: PG=−50
  Log10LC50: −4.61 log10M
BT-549; BT-549 (Breast Cancer), TGI: PG=0
  Log10TGI50: −5.07 log10M
BT-549; Breast Cancer, BT-549
  Log10GI50: <−8.30
OVCAR-5; OVCAR-5 (Ovarian Cancer)
  Log10LC50: −4.66 log10M
OVCAR-5; OVCAR-5 (Ovarian Cancer), TGI: PG=0
  Log10TGI50: −5.14 log10M
OVCAR-5
  Log10GI50: <−8.30
RXF 393
  Log10LC50: >−4.30 log10M
  Log10TGI50: −4.69 log10M
  Log10GI50: −5.20
SNB-19; CNS Cancer, SNB-19
  Log10GI50: −5.08
SNB-19; SNB-19 (CNS Cancer), LC50: PG=−50
  Log10LC50: >−4.30 log10M
SNB-19; SNB-19 (CNS Cancer), TGI: PG=0
  Log10TGI50: >−4.30 log10M
IGROVI
  Log10LC50: >−4.30 log10M
  Log10TGI50: >−4.30 log10M
  Log10GI50: −5.36
PC-3
  Log10LC50: −4.63 log10M
  Log10TGI50: −5.11 log10M
  Log10GI50: <−8.30
CCRF-CEM
  Log10LC50: >−4.30 log10M
  Log10TGI50: >−4.30 log10M
NCI-H322M; NCI-H322M (Non-Small Cell Lung Cancer), LC50: PG=−50
  Log10LC50: −4.59 log10M
NCI-H322M; [1]
  Log10TGI50: −5.06 log10M
NCI-H322M
  Log10GI50: −6.26
HOP-92
  Log10LC50: −4.74 log10M
  Log10TGI50: −5.27 log10M
  Log10GI50: −8.04

From patent US7417156B2, “Orally active, antimalarial, anticancer, artemisinin-derived trioxane dimers” (Johns Hopkins University, priority 2002, dated 2008)
